# Measured values as given in patent US8765819B2, “Composition comprising benzoic acid in combination with organic acid preservatives as active ingredients and the use thereof” (priority 2009, dated 2014).
# Key:
# [1] = tested on: Candida strains (clinical isolates from patients suffering from Candidal vaginitis); experiment: Inhibition of Candida growth in broth pH 4.5 (turbidity after 72 hours); format: cell-based
# Source text: 1. […] Unless otherwise illustrated, the solutions in the experiments are all aqueous solutions. 2. Experimental Method: (1) Experimental Materials:
# a) Experimental strains: 11 Candida strains, all of which were screened from the clinical isolates from patients suffering from Candidal vaginitis, and were capable of growing in broth comprising 0.025% (w/v) sodium benzoate.
# b) Broth: 1% yeast extract powder, 9% sucrose, 0.025% Manganese sulfate (MnSO4.4H2O), 0.058% Magnesium sulphate (MgSO4.7H2O), and 0.9% lactic acid, wherein the pH value was adjusted to 4.5 and the broth was sterilized for use;
# (2) Experimental Grouping:
# The requirements for aseptic technique were strictly followed to prepare the following groups of sterile test tubes: • a) sodium benzoate group: a test tube containing 5 ml broth, to which 0.025% (w/v) sodium benzoate was added; • b) sodium benzoate+sodium dehydroacetate group: 6 test tubes each containing 5 ml broth, wherein 0.0025% (w/v), 0.005% (w/v), and 0.01% (w/v) sodium dehydroacetate were added to three tubes, respectively; 0.025% (w/v) sodium benzoate was added to each of the rest 3 tubes, and then 0.0025% (w/v), 0.005% (w/v), 0.01% (w/v) sodium dehydroacetate were added to them, respectively; • c) sodium benzoate+sodium propionate group: 6 test tubes each containing 5 ml broth, wherein 0.0625% (w/v), 0.125% (w/v), and 0.25% (w/v) sodium propionate were added to three tubes, respectively; 0.025% (w/v) sodium benzoate was added to each of the rest 3 tubes, and then 0.0625% (w/v), 0.125% (w/v), and 0.25% (w/v) sodium propionate were added to them, respectively; • d) sodium benzoate+potassium sorbate group: 6 test tubes each containing 5 ml broth, wherein 0.00625% (w/v), 0.0125% (w/v), and 0.025% (w/v) potassium sorbate were added to 3 tubes, respectively; 0.025% (w/v) sodium benzoate was added to each of the rest 3 tubes, and then 0.00625% (w/v), 0.0125% (w/v), and 0.025% (w/v) potassium sorbate were added to them, respectively; • e) sodium benzoate+Ethylparaben: 6 test tubes each containing 5 ml broth, wherein 0.0125% (w/v), 0.025% (w/v), and 0.05% (w/v) Ethylparaben were added to 3 tubes, respectively; 0.025% (w/v) sodium benzoate was added to each of the rest 3 tubes, and then 0.0125% (w/v), 0.025% (w/v), and 0.05% (w/v) Ethylparaben were added to them, respectively; • f) Positive control: a broth-containing test tube with Candida but without sodium benzoate, sodium dehydroacetate, sodium propionate, sorbic acid, or Ethylparaben. • g) Negative control: a broth-containing test tube without Candida, sodium benzoate, sodium dehydroacetate, sodium propionate, sorbic acid, or Ethylparaben; (3) Experimental Methods:
# The Candidal suspensions were prepared under stringent aseptic manipulation techniques. The colonies of various Candidal strains were diluted with saline, respectively. The turbidity was adjusted with a turbiditor to 0.5M (about 10^8CFU/ml), and then 1 ml 0.5M bacterial solution was added to 9 ml broth and was 10 times diluted, so that each Candidal suspension comprised Candidal organisms at 10^7CFU/ml.
# Under stringent aseptic manipulation techniques, 100 μl bacterial solution thus prepared was added to each of the aforesaid a˜f test tubes and the positive control tube, and no bacterial solution was added to the negative control tube g.
# These tubes were incubated in a biochemical incubator at 37.5° C. for 72 hours. The turbidity of the test tubes were observed and recorded.
# [2] = tested on: Candidal vaginitis; experiment: Therapeutic effect of gel compositions on Candidal vaginitis (clinical cases); format: in vivo, patients; conditions: cases/cases of group
# Source text: 1. Experimental Object: observing the therapeutic effect of the compositions comprising the combination of sodium benzoate with sodium propionate or sorbic acid. Unless otherwise illustrated, the solutions in the experiments are all aqueous solutions.
# • Group I: 0.125% (w/v) sodium propionate; • Group II: i.e., the composition of Example 9 comprising 0.1% (w/v) sodium benzoate+0.125% (w/v) sodium propionate; • Group III: 0.0125% (w/v) sorbic acid; • Group IV: i.e., the composition of Example 7 comprising 0.1% (w/v) sodium benzoate+0.0125% (w/v) sorbic acid; • Group V: 0.1% (w/v) sodium benzoate; • Group VI: i.e., the composition of Example 5 comprising 0.1% sodium benzoate+0.0125% sodium dehydroacetate. 3. Experimental cases: cases of Candidal vaginitis, 20 cases per group, enrolling according to following criteria: recurrent symptoms such as vulvovaginal pruritus and vulvovaginal burning pain, and increased leucorrhea, optionally with white bean curd slag-like clots, pH value of vaginal secretion <4.5, vaginal bacteria were dominated by large Gram-positive rods, and Candida spores and/or hypha were found. 4. […] 5. […] 6. Observed results: observing the changes in vulvovaginal pruritus, vulvovaginal burning pain and leucorrhea nature, the pH value of vaginal secretion, observing the Nugent scores of the vaginal flora, whether Candida grew or not. 7. […] 8.
smiles,measurement,setting,value
"CCC(=O)[O-].[Na+] [0.125% sodium propionate, sodium propionate]","Candida growth, Strain 1","[1]; Strain 1, 37.5° C.",+
same,"Candida growth, Strain 2","[1]; Strain 2, 37.5° C.",+
same,"Candida growth, Strain 3","[1]; Strain 3, 37.5° C.",+
same,"Candida growth, Strain 4","[1]; Strain 4, 37.5° C.",+
same,"Candida growth, Strain 5","[1]; Strain 5, 37.5° C.",−
same,"Candida growth, Strain 6","[1]; Strain 6, 37.5° C.",+
same,"Candida growth, Strain 7","[1]; Strain 7, 37.5° C.",+
same,"Candida growth, Strain 8","[1]; Strain 8, 37.5° C.",+
same,"Candida growth, Strain 9","[1]; Strain 9, 37.5° C.",−
same,"Candida growth, Strain 10","[1]; Strain 10, 37.5° C.",+
same,"Candida growth, Strain 11","[1]; Strain 11, 37.5° C.",−
same,Candida (detection rate),[2]; Day 1,16/20
same,pH 3.8~4.1 (vaginal secretion),[2]; Day 1,12/20
same,pH 4.2~4.5 (vaginal secretion),[2]; Day 1,5/20
same,pH <3.8 (vaginal secretion),[2]; Day 1,3/20
same,symptom alleviated/eliminated,[2]; Day 1,7/20
same,Candida (detection rate),[2]; Day 2,13/20
same,pH 3.8~4.1 (vaginal secretion),[2]; Day 2,11/20
same,pH 4.2~4.5 (vaginal secretion),[2]; Day 2,6/20
same,pH <3.8 (vaginal secretion),[2]; Day 2,3/20
same,symptom alleviated/eliminated,[2]; Day 2,9/20
same,Candida (detection rate),[2]; Day 3,10/20
same,pH 3.8~4.1 (vaginal secretion),[2]; Day 3,9/20
same,pH 4.2~4.5 (vaginal secretion),[2]; Day 3,9/20
same,pH <3.8 (vaginal secretion),[2]; Day 3,2/20
same,symptom alleviated/eliminated,[2]; Day 3,14/20
same,Candida (detection rate),[2]; Day 4,12/20
same,pH 3.8~4.1 (vaginal secretion),[2]; Day 4,10/20
same,pH 4.2~4.5 (vaginal secretion),[2]; Day 4,9/20
same,pH <3.8 (vaginal secretion),[2]; Day 4,1/20
same,symptom alleviated/eliminated,[2]; Day 4,13/20
same,Candida (detection rate),[2]; Day 5,11/20
same,pH 3.8~4.1 (vaginal secretion),[2]; Day 5,10/20
same,pH 4.2~4.5 (vaginal secretion),[2]; Day 5,8/20
same,pH <3.8 (vaginal secretion),[2]; Day 5,2/20
same,symptom alleviated/eliminated,[2]; Day 5,13/20
same,Candida (detection rate),[2]; before administration,20/20
same,pH 3.8~4.1 (vaginal secretion),[2]; before administration,9/20
same,pH 4.2~4.5 (vaginal secretion),[2]; before administration,5/20
same,pH <3.8 (vaginal secretion),[2]; before administration,6/20
same,symptom alleviated/eliminated,[2]; before administration,0/20
"O=C([O-])c1ccccc1.[Na+] [0.1% sodium benzoate, sodium benzoate]",Candida (detection rate),[2]; Day 1,15/20
same,pH 3.8~4.1 (vaginal secretion),[2]; Day 1,12/20
same,pH 4.2~4.5 (vaginal secretion),[2]; Day 1,6/20
same,pH <3.8 (vaginal secretion),[2]; Day 1,2/20
same,symptom alleviated/eliminated,[2]; Day 1,7/20
same,Candida (detection rate),[2]; Day 2,13/20
same,pH 3.8~4.1 (vaginal secretion),[2]; Day 2,10/20
same,pH 4.2~4.5 (vaginal secretion),[2]; Day 2,9/20
same,pH <3.8 (vaginal secretion),[2]; Day 2,1/20
same,symptom alleviated/eliminated,[2]; Day 2,9/20
same,Candida (detection rate),[2]; Day 3,9/20
same,pH 3.8~4.1 (vaginal secretion),[2]; Day 3,9/20
same,pH 4.2~4.5 (vaginal secretion),[2]; Day 3,9/20
same,pH <3.8 (vaginal secretion),[2]; Day 3,2/20
same,symptom alleviated/eliminated,[2]; Day 3,14/20
same,Candida (detection rate),[2]; Day 4,5/20
same,pH 3.8~4.1 (vaginal secretion),[2]; Day 4,10/20
same,pH 4.2~4.5 (vaginal secretion),[2]; Day 4,9/20
same,pH <3.8 (vaginal secretion),[2]; Day 4,1/20
same,symptom alleviated/eliminated,[2]; Day 4,15/20
same,Candida (detection rate),[2]; Day 5,6/20
same,pH 3.8~4.1 (vaginal secretion),[2]; Day 5,9/20
same,pH 4.2~4.5 (vaginal secretion),[2]; Day 5,10/20
same,pH <3.8 (vaginal secretion),[2]; Day 5,1/20
same,symptom alleviated/eliminated,[2]; Day 5,15/20
same,Candida (detection rate),[2]; before administration,20/20
same,pH 3.8~4.1 (vaginal secretion),[2]; before administration,10/20
same,pH 4.2~4.5 (vaginal secretion),[2]; before administration,4/20
same,pH <3.8 (vaginal secretion),[2]; before administration,6/20
same,symptom alleviated/eliminated,[2]; before administration,0/20
"C/C=C/C=C/C(=O)O [0.0125% sorbic acid, sorbic acid]",Candida (detection rate),[2]; Day 1,15/20
same,pH 3.8~4.1 (vaginal secretion),[2]; Day 1,13/20
same,pH 4.2~4.5 (vaginal secretion),[2]; Day 1,6/20
same,pH <3.8 (vaginal secretion),[2]; Day 1,1/20
same,symptom alleviated/eliminated,[2]; Day 1,6/20
same,Candida (detection rate),[2]; Day 2,15/20
same,pH 3.8~4.1 (vaginal secretion),[2]; Day 2,11/20
same,pH 4.2~4.5 (vaginal secretion),[2]; Day 2,7/20
same,pH <3.8 (vaginal secretion),[2]; Day 2,2/20
same,symptom alleviated/eliminated,[2]; Day 2,12/20
same,Candida (detection rate),[2]; Day 3,13/20
same,pH 3.8~4.1 (vaginal secretion),[2]; Day 3,10/20
same,pH 4.2~4.5 (vaginal secretion),[2]; Day 3,8/20
same,pH <3.8 (vaginal secretion),[2]; Day 3,2/20
same,symptom alleviated/eliminated,[2]; Day 3,11/20
same,Candida (detection rate),[2]; Day 4,14/20
same,pH 3.8~4.1 (vaginal secretion),[2]; Day 4,11/20
same,pH 4.2~4.5 (vaginal secretion),[2]; Day 4,8/20
same,pH <3.8 (vaginal secretion),[2]; Day 4,1/20
same,symptom alleviated/eliminated,[2]; Day 4,13/20
same,Candida (detection rate),[2]; Day 5,13/20
same,pH 3.8~4.1 (vaginal secretion),[2]; Day 5,11/20
same,pH 4.2~4.5 (vaginal secretion),[2]; Day 5,7/20
same,pH <3.8 (vaginal secretion),[2]; Day 5,2/20
same,symptom alleviated/eliminated,[2]; Day 5,12/20
same,Candida (detection rate),[2]; before administration,20/20
same,pH 3.8~4.1 (vaginal secretion),[2]; before administration,9/20
same,pH 4.2~4.5 (vaginal secretion),[2]; before administration,6/20
same,pH <3.8 (vaginal secretion),[2]; before administration,5/20
same,symptom alleviated/eliminated,[2]; before administration,0/20
